Results published in patent US20180368410A1, “MICROBIOCIDAL OXADIAZOLE DERIVATIVES” (SYNGENTA PARTICIPATIONS AG, priority 2015, published 2018).

How the values were obtained:
[1] = tested on: Puccinia recondita f. Sp. Tritici; assay: Puccinia recondita f. sp. tritici / wheat / leaf disc preventative (brown rust); assay type: in vivo, Puccinia recondita f. sp. tritici on wheat cv. Kanzler; details: foliar, 200 ppm in the applied formulation, inoculated 1 day after application, assessed 7 to 9 days after application, vs untreated control leaf disks, read-out: disease control
In short: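 Wheat cv. Kanzler leaf segments on agar were sprayed with compound (DMSO stock diluted with 0.025% Tween20) 1 day before inoculation with spores. Segments were held at 19 °C, 75% rh, 12 h light/dark. Percent disease control versus untreated was scored 7–9 days after application.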

[2] = tested on: Puccinia recondita f. Sp. Triticil; assay: Puccinia recondita f. sp. tritici / wheat / leaf disc curative (brown rust); assay type: in vivo, Puccinia recondita f. sp. tritici on wheat cv. Kanzler; details: foliar, 200 ppm in the applied formulation, applied 1 day after inoculation, assessed 6 to 8 days after application, vs untreated control leaf disks, read-out: disease control
In short: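 Segments of wheat (cultivar Kanzler) sit on agar and are spore-inoculated first; after one day in darkness at 19° C and 75% RH the diluted formulated compound is sprayed on. A 12 h photoperiod follows at the same temperature and humidity before disease is scored against untreated controls.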

[3] = tested on: Phakopsora pachyrhizi; assay: Phakopsora pachyrhizi / soybean / leaf disc preventative (Asian soybean rust); assay type: in vivo, Phakopsora pachyrhizi on soybean; details: foliar, 200 ppm in the applied formulation, inoculated one day after application, assessed 12 to 14 days after application, vs untreated control leaf disks, read-out: disease control
In short: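 Read-out is percent disease control relative to untreated check discs, assessed once untreated discs show adequate disease, 12 to 14 days after application. Compounds, tested at 200 ppm in the applied formulation, are sprayed onto soybean leaf discs one day before inoculation with a spore suspension.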

[4] = tested on: Glomerella Lacenarium (Colletotrichum lacenarium); assay: Glomerella lagenarium (Colletotrichum lagenarium) liquid culture / cucumber / preventative (anthracnose); assay type: cell-based; details: 20 ppm in the applied formulation, liquid culture in PDB, 24° C., inhibition of growth measured photometrically 3 to 4 days after application, vs untreated control, read-out: disease control
In short: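 Test compound in DMSO is placed in a microtiter plate, then potato dextrose broth containing conidia from cryogenic storage is added. Incubation runs at 24° C., and growth inhibition is read photometrically after 3 to 4 days.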

[5] = tested on: Uromyces viciae-Fabael; assay: Uromyces viciae-fabae / field bean / leaf disc preventative (faba-bean rust); assay type: in vivo, Uromyces viciae-fabae on field bean; details: foliar, 288 h, 100 ppm in the applied formulation, inoculated two hours after application, assessed 12 days after application, vs untreated control leaf discs, read-out: disease control
Experimental: Leaf disks or leaf segments of various plant species are cut from plants grown in a greenhouse. The cut leaf disks or segments are placed in multiwell plates (24-well format) onto water agar. The leaf disks are sprayed with a test solution before (preventative) or after (curative) inoculation. Compounds to be tested are prepared as DMSO solutions (max. 10 mg/ml) which are diluted to the appropriate concentration with 0.025% Tween20 just before spraying. The inoculated leaf disks or segments are incubated under defined conditions (temperature, relative humidity, light, etc.) according to the respective test system. A single evaluation of disease level is carried out 3 to 14 days after inoculation, depending on the pathosystem. Percent disease control relative to the untreated check leaf disks or segments is then calculated.
Field bean leaf discs are placed on water agar in multiwell plates (96-well format) and 10 μl of the formulated test compound diluted in acetone and a spreader pipetted onto the leaf disc. Two hours after application leaf discs are inoculated by spraying a spore suspension on the lower leaf surface. The leaf discs are incubated in a climate cabinet at 22° C. with 18 hour day and 70% relative humidity. The activity of a compound is assessed as percent disease control compared to untreated when an appropriate level of disease damage appears in untreated check leaf disks (12 days after application).
The following compounds at 100 ppm in the applied formulation give at least 80% disease control in this test when compared to untreated control leaf discs under the same conditions, which show extensive disease development.

melting point [°C] | SMILES | pest or weed control at 200 ppm [1] [%] | pest or weed control at 200 ppm [2] [%] | pest or weed control at 200 ppm [3] [%] | inhibition of growth at 20 ppm [4] [%] | pest or weed control at 100 ppm [5] [%]
 | O=C(CC1CC1(F)F)NCc1ccc(-c2noc(C(F)(F)F)n2)cc1 (stereo not drawn) [Compound 1.32, 2-(2,2-difluorocyclopropyl)-N-[[4-[5-(trifluoromethyl)-1,2,4-oxadiazol-3-yl]phenyl]methyl]acetamide] | ≥ 80 | ≥ 80 | ≥ 80 | ≥ 80 | ≥ 80
 | Cc1cccc(C)c1C(=O)NCc1ccc(-c2noc(C(F)(F)F)n2)cc1 [Compound 1.19, 2,6-dimethyl-N-[[4-[5-(trifluoromethyl)-1,2,4-oxadiazol-3-yl]phenyl]methyl]benzamide] | ≥ 80 |  | ≥ 80 | ≥ 80 | ≥ 80
 | N#Cc1ccc(CC(=O)NCc2ccc(-c3noc(C(F)(F)F)n3)cc2)cc1 [Compound 1.30, 2-(4-cyanophenyl)-N-[[4-[5-(trifluoromethyl)-1,2,4-oxadiazol-3-yl]phenyl]methyl]acetamide] | ≥ 80 |  | ≥ 80 |  | ≥ 80
 | COc1ccccc1CC(=O)NCc1ccc(-c2noc(C(F)(F)F)n2)cc1 [Compound 1.23, 2-(2-methoxyphenyl)-N-[[4-[5-(trifluoromethyl)-1,2,4-oxadiazol-3-yl]phenyl]methyl]acetamide] | ≥ 80 | ≥ 80 |  |  | ≥ 80
 | O=C(NCc1ccc(-c2noc(C(F)(F)F)n2)cc1)c1ccccc1 [Compound 1.40, N-[[4-[5-(trifluoromethyl)-1,2,4-oxadiazol-3-yl]phenyl]methyl]benzamide] | ≥ 80 | ≥ 80 |  | ≥ 80 | ≥ 80
 | O=C(NCc1ccc(-c2noc(C(F)(F)F)n2)cc1)C1CCSCC1 [Compound 1.27, N-[[4-[5-(trifluoromethyl)-1,2,4-oxadiazol-3-yl]phenyl]methyl] tetrahydrothiopyran-4-carboxamide] | ≥ 80 |  | ≥ 80 |  | ≥ 80
84 to 88 | O=C(NCc1ccc(-c2noc(C(F)(F)F)n2)nc1)C1CCCO1 (stereo not drawn) [Compound 1.94, N-[[6-[5-(trifluoromethyl)-1,2,4-oxadiazol-3-yl]-3-pyridyl]methyl] tetrahydrofuran-2-carboxamide] |  | ≥ 80 |  |  | 
106 to 113 | O=C(NCc1ccc(-c2noc(C(F)(F)F)n2)nc1)c1ccccc1Cl [Compound 1.95, 2-chloro-N-[[6-[5-(trifluoromethyl)-1,2,4-oxadiazol-3-yl]-3-pyridyl]methyl] benzamide] | ≥ 80 |  |  |  | 
 | O=C(Cc1ccc(C(F)(F)F)cc1)NCc1ccc(-c2noc(C(F)(F)F)n2)cc1 [Compound 1.34, N-[[4-[5-(trifluoromethyl)-1,2,4-oxadiazol-3-yl]phenyl]methyl]-2-[4-(trifluoromethyl)phenyl] acetamide] | ≥ 80 |  |  |  | ≥ 80
 | O=C(NCc1ccc(-c2noc(C(F)(F)F)n2)cc1)C1CCOC1 (stereo not drawn) [Compound 1.18, N-[[4-[5-(trifluoromethyl)-1,2,4-oxadiazol-3-yl]phenyl]methyl] tetrahydrofuran-3-carboxamide] | ≥ 80 | ≥ 80 | ≥ 80 | ≥ 80 | ≥ 80
 | O=C(NCc1ccc(-c2noc(C(F)(F)F)n2)cc1)C1(c2ccccc2)CC1 [Compound 1.14, 1-phenyl-N-[[4-[5-(trifluoromethyl)-1,2,4-oxadiazol-3-yl]phenyl]methyl] cyclopropanecarboxamide] | ≥ 80 |  |  | ≥ 80 | ≥ 80
 | O=C(Cc1ccccc1Cl)NCc1ccc(-c2noc(C(F)(F)F)n2)cc1 [Compound 1.12, 2-(2-chlorophenyl)-N-[[4-[5-(trifluoromethyl)-1,2,4-oxadiazol-3-yl]phenyl]methyl]acetamide] | ≥ 80 |  |  |  | ≥ 80
 | CC1(C(=O)NCc2ccc(-c3noc(C(F)(F)F)n3)cc2)CC1(Cl)Cl (stereo not drawn) [Compound 1.20, 2,2-dichloro-1-methyl-N-[[4-[5-(trifluoromethyl)-1,2,4-oxadiazol-3-yl]phenyl]methyl] cyclopropanecarboxamide] | ≥ 80 |  |  | ≥ 80 | ≥ 80
 | COc1cccc(C2(C(=O)NCc3ccc(-c4noc(C(F)(F)F)n4)cc3)CC2)c1 [Compound 1.37, 1-(3-methoxyphenyl)-N-[[4-[5-(trifluoromethyl)-1,2,4-oxadiazol-3-yl]phenyl]methyl] cyclopropanecarboxamide] |  | ≥ 80 |  |  | ≥ 80
 | O=C(NCc1ccc(-c2noc(C(F)(F)F)n2)cc1)C1(c2ccc(Cl)cc2)CCC1 [Compound 1.13, 1-(4-chlorophenyl)-N-[[4-[5-(trifluoromethyl)-1,2,4-oxadiazol-3-yl]phenyl]methyl] cyclobutanecarboxamide] | ≥ 80 |  |  |  | ≥ 80
 | O=C(NCc1ccc(-c2noc(C(F)(F)F)n2)cc1)C1CC1c1ccccc1 (stereo not drawn) [Compound 1.15, 2-phenyl-N-[[4-[5-(trifluoromethyl)-1,2,4-oxadiazol-3-yl]phenyl]methyl] cyclopropanecarboxamide] | ≥ 80 |  |  | ≥ 80 | ≥ 80
 | O=C(Cc1ccc(Cl)cc1)NCc1ccc(-c2noc(C(F)(F)F)n2)cc1 [Compound 1.29, 2-(4-chlorophenyl)-N-[[4-[5-(trifluoromethyl)-1,2,4-oxadiazol-3-yl]phenyl]methyl]acetamide] | ≥ 80 |  | ≥ 80 |  | ≥ 80
 | O=C(NCc1ccc(-c2noc(C(F)(F)F)n2)cc1)C1(c2ccc(Cl)cc2)CC1 [Compound 1.39, 1-(4-chlorophenyl)-N-[[4-[5-(trifluoromethyl)-1,2,4-oxadiazol-3-yl]phenyl]methyl] cyclopropanecarboxamide] |  |  | ≥ 80 |  | ≥ 80
 | O=C(Cc1ccccc1)NCc1ccc(-c2noc(C(F)(F)F)n2)cc1 [Compound 1.26, 2-phenyl-N-[[4-[5-(trifluoromethyl)-1,2,4-oxadiazol-3-yl]phenyl]methyl]acetamide] | ≥ 80 | ≥ 80 | ≥ 80 | ≥ 80 | ≥ 80
 | O=C(NCc1ccc(-c2noc(C(F)(F)F)n2)cc1)c1ccc(Cl)cc1 [Compound 1.36, 4-chloro-N-[[4-[5-(trifluoromethyl)-1,2,4-oxadiazol-3-yl]phenyl]methyl]benzamide] | ≥ 80 |  |  | ≥ 80 | ≥ 80
 | COc1ccccc1C(=O)NCc1ccc(-c2noc(C(F)(F)F)n2)cc1 [Compound 1.6, 2-methoxy-N-[[4-[5-(trifluoromethyl)-1,2,4-oxadiazol-3-yl]phenyl]methyl]benzamide] | ≥ 80 | ≥ 80 | ≥ 80 | ≥ 80 | ≥ 80
 | O=C(Cc1cccnc1)NCc1ccc(-c2noc(C(F)(F)F)n2)cc1 [Compound 1.17, 2-(3-pyridyl)-N-[[4-[5-(trifluoromethyl)-1,2,4-oxadiazol-3-yl]phenyl]methyl]acetamide] | ≥ 80 | ≥ 80 |  |  | ≥ 80
